# In PubChem BioAssay AID2060343 (Molecular Pharmacology Branch, DTP, NCI, 2025):
# Several values for one entry are separate records, joined by “and”; a condition that tells them apart may be missing. Equal entries are not always repeated.
# Tested on: 138582-337-R-J1-PDC spheroids with HUVEC/MSC, viability
# Experiment: Anticancer human tumor 138582-337-R-J1-PDC patient-derived Merkel cell tumor cell line growth inhibition [IpAb]
# Conditions: for viability, T/C: stronger effect = lower value
# Description: Combinatorial screen of targeted agents with ipatasertib and abemaciclib in multi-cell type tumor spheroids
# A high-throughput screen of multi-cell type tumor spheroids was designed to identify active combinations of targeted small molecules and ipatasertib or abemaciclib. Complex spheroids include a stromal component modeled by human endothelial cells (HUVEC) and fibroblasts modeled by human mesenchymal stem cells (MSCs). The concentration ranges selected for each drug and investigational agent were based upon clinically achievable concentrations if the clinical Cmax of the agent was known.
# Compounds. The drugs and investigational agents: ipatasertib (NSC767898), abemaciclib(NSC768073), selumetinib (NSC741078), trametinib (758246), adavosertib (NSC754352), everolimus (NSC733504), sapanisertib (NSC764658), vemurafenib (NSC761431), venetoclax (NSC766270), copanlisib (NSC809693), apelisib (NSC765974), palbociblib (NSC758247), vemurafenib (NSC761431), dabrafenib (NSC764134), ravoxertinib (NSC781343), BMS-387032 (NSC767048), sotorasib (NSC818433), talazoparib (NSC767125) and afursertib (NSC778305), were obtained from the National Cancer Institute (NCI) Developmental Therapeutics Program Chemical Repository. The FDA-approved anticancer drug set is available from the NCI Developmental Therapeutics Program. […] The stock solutions were prepared in dimethyl sulfoxide (DMSO, Sigma-Aldrich, St. Louis, MO, cat. D2650) at 800-fold the tested concentration and stored at -70 degrees C prior to their use. All drugs and investigational agents were tested over a range starting from a high concentration at or near the clinical Cmax and decreasing in half-log increments. If the clinical Cmax for an agent had not been determined, the highest concentration tested was 10 microM.
# NCI60 Cell Culture. NCI60 cell lines were obtained from the NCI Developmental Therapeutics Program Tumor Repository. For each lot of cells, the Repository performed Applied Biosystems AmpFLSTR Identifiler testing with PCR amplification to confirm consistency with the published Identifier STR profile for each cell line. Cells were kept in continuous culture for no more than 20 passages. The optimal seeding densities for each of the cell lines at each time point assessed were determined prior to performing the concentration response studies. Briefly, the NCI60 human tumor lines were grown as monolayers in RPMI 1640 medium supplemented with 10% FBS and 2 mmol/L L-glutamine.
# An additional 9 lines were from the NCI60 cell line panel including MDA-MB-231 breast carcinoma, MDA-MB-468 breast carcinoma, MCF7 breast carcinoma, Hs578T breast carcinoma, MALME-3M melanoma, SK-MEL-2 melanoma, SK-OV-3 ovarian carcinoma, DU-145 prostate carcinoma, PC-3 prostate carcinoma, all cell lines along with major genetic alterations are listed on Table 2. Pooled donor human umbilical vein endothelial cells (HUVEC, Lonza, cat. CC-2519) and human mesenchymal stem cells (hMSC, Lonza, cat. PT-2501) were purchased from Lonza (Walkersville, MD).
# PDMR cell lines were grown in complete medium (DC medium): Dulbecco's modified Eagle's medium (DMEM)/F12 supplemented with 5% fetal bovine serum (FBS), 2 mM L-glutamine, 100 U/mL penicillin and 100 µg/ml streptomycin, 0.4 µg/ml hydrocortisone, 10 ng/ml epidermal growth factor (EGF) recombinant human protein, 24 µg/mL adenine, and 0.1 mg/mL primocin. During culture from frozen stock vials, PDMR cells were cultured in the same medium containing 10 µM Y-27632 (see Table 3). The PDCs were cultured in complete DMEM/F12 media without 10 microM Y-27632 dihydrochloride for at least two passages prior to the screen. The pooled donor HUVEC and hMSC were cultured in endothelial cell growth medium 2 (PromoCell, Heidelberg, Germany, cat. C-22011) and mesenchymal stem cell growth medium 2 (PromoCell, cat. C-28009), respectively. For all experiments, HUVEC and hMSC were used at passages </=5.
# […]
# 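Further: spheroids exposed to compounds for seven days.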
# 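Wherever viability, T/C is given: 100% = DMSO vehicle control viability.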
Compound,"viability, T/C (compound 0.0316 µM)","viability, T/C (compound 0.1 µM)","viability, T/C (compound 0.316 µM)","viability, T/C (compound 1 µM)","viability, T/C (compound 3.16 µM)","viability, T/C (compound 10 µM)",IC50 (curve of compound),"viability, T/C (compound 0.01 µM)",also measured
C=CC(=O)N1CCN(c2nc(=O)n(-c3c(C)ccnc3C(C)C)c3nc(-c4c(O)cccc4F)c(F)cc23)C(C)C1 (configuration not stated),101% and 99.3%,104% and 97%,113% and 121%,120% and 108%,149% and 144%,187% and 181%,> 10000 nM,,
C=CCn1c(=O)c2cnc(Nc3ccc(N4CCN(C)CC4)cc3)nc2n1-c1cccc(C(C)(C)O)n1,96.7% and 116%,93.5% and 103%,98.4% and 90.7%,102% and 89.4%,126% and 110%,137% and 139%,> 10000 nM,,
CC(=O)c1c(C)c2cnc(Nc3ccc(N4CCNCC4)cn3)nc2n(C2CCCC2)c1=O,,,,,,,> 300 nM,,"viability, T/C (compound 0.000949 µM): 95.6% and 98.8%; viability, T/C (compound 0.003 µM): 104% and 90.5%; viability, T/C (compound 0.00949 µM): 102% and 101%; viability, T/C (compound 0.03 µM): 93.2% and 87.6%; viability, T/C (compound 0.0949 µM): 94.9% and 92%; viability, T/C (compound 0.3 µM): 100% and 84.8%"
CC(C)(C)c1cnc(CSc2cnc(NC(=O)C3CCNCC3)s2)o1,,,,,,,88.2 nM and 152 nM,,"viability, T/C (compound 0.00949 µM): 110% and 99.4%; viability, T/C (compound 0.03 µM): 110% and 114%; viability, T/C (compound 0.0949 µM): 45.9% and 84.2%; viability, T/C (compound 0.3 µM): 0.46% and 0.83%; viability, T/C (compound 0.949 µM): 0.54% and 0.68%; viability, T/C (compound 3 µM): 0.61% and 0.65%"
CC(C)NCC(C(=O)N1CCN(c2ncnc3c2C(C)CC3O)CC1)c1ccc(Cl)cc1 (configuration not stated),,92.1% [middle of 13 runs],79.9% [middle of 13 runs],64.4% [middle of 13 runs],53.1% [middle of 13 runs],42.7% [middle of 13 runs],,,
CC(C)n1nc(-c2ccc3oc(N)nc3c2)c2c(N)ncnc21,59.4% and 57.2%,39.2% and 46.5%,,,,,51.9 nM and 70.1 nM,70% and 77.5%,"viability, T/C (compound 0.000316 µM): 97% and 95%; viability, T/C (compound 0.001 µM): 90.5% and 88.2%; viability, T/C (compound 0.00316 µM): 82.9% and 83.9%"
CC1(C)CCC(CN2CCN(c3ccc(C(=O)NS(=O)(=O)c4ccc(NCC5CCOCC5)c([N+](=O)[O-])c4)c(Oc4cnc5[nH]ccc5c4)c3)CC2)=C(c2ccc(Cl)cc2)C1,86% and 96.1%,83.1% and 79.8%,74.2% and 75.6%,80.1% and 87.6%,97% and 94.6%,78% and 68.1%,> 10000 nM,,
CCCS(=O)(=O)Nc1ccc(F)c(C(=O)c2c[nH]c3ncc(-c4ccc(Cl)cc4)cc23)c1F,96.5% and 102%,89.8% and 97.6%,101% and 98.8%,92.3% and 99%,115% and 116%,97.3% and 81.5%,> 10000 nM,,
CCN1CCN(Cc2ccc(Nc3ncc(F)c(-c4cc(F)c5nc(C)n(C(C)C)c5c4)n3)nc2)CC1,90.6% [middle of 13 runs],90.9% [middle of 13 runs],90.5% [middle of 13 runs],96.4% [middle of 13 runs],,,,96.6% [middle of 13 runs],"IC50 (compound alone, run of 05/18/2021): > 1000 nM"
COc1c(OCCCN2CCOCC2)ccc2c3n(c(=NC(=O)c4cnc(N)nc4)nc12)CCN3,53.5% and 58.3%,36.1% and 37.8%,17.5% and 18%,2.36% and 3.37%,,,39 nM and 51.2 nM,71.2% and 75.9%,"viability, T/C (compound 0.00316 µM): 94.9% and 84.9%"
